In ChEMBL document CHEMBL3400121, “Design and synthesis of novel 1,2,3-triazole-pyrimidine-urea hybrids as potential anticancer agents” (Bioorg Med Chem Lett, 2015):

Experiments:
Type in all cases: functional, cell-based
[1] = Anticancer activity against mouse B16F10 cells assessed as inhibition of proliferation after 72 hrs by MTT assay; conditions: B16-F10, 72 h
MGC-803 = experiment: Anticancer activity against human MGC803 cells assessed as inhibition of proliferation after 72 hrs by MTT assay; conditions: MGC-803, 72 h
[2] = Anticancer activity against human EC109 cells assessed as inhibition of proliferation after 72 hrs by MTT assay; conditions: ECa-109, 72 h
MCF7 = experiment: Anticancer activity against human MCF7 cells assessed as inhibition of proliferation after 72 hrs by MTT assay; conditions: MCF7, 72 h

Cc1ccc(Nc2nc(SCc3cn(CC(=O)NC(=O)Nc4ccccn4)nn3)nc(-c3ccc(Br)cc3)c2C#N)cc1
IC50 [1]: 8.16 µM
IC50 (MGC-803): 13.9 µM
IC50 [2]: 7.92 µM
IC50 (MCF7): 14.4 µM

COc1cc(-c2nc(SCc3cn(CC(=O)NC(=O)Nc4ccccn4)nn3)nc(Nc3ccc(C(C)C)cc3)c2C#N)cc(OC)c1OC
IC50 [1]: 1.21 µM
IC50 (MGC-803): 35.5 µM
IC50 [2]: > 64 µM
IC50 (MCF7): 30.9 µM

Cc1ccc(Nc2nc(SCc3cn(CC(=O)NC(=O)Nc4ccccn4)nn3)nc(-c3ccc(C)cc3)c2C#N)cc1
IC50 [1]: 1.01 µM
IC50 (MGC-803): 9.89 µM
IC50 [2]: > 64 µM
IC50 (MCF7): 39.6 µM

COc1ccccc1Nc1nc(SCc2cn(CC(=O)NC(=O)Nc3ccccn3)nn2)nc(-c2ccc(C(C)C)cc2)c1C#N
IC50 [1]: 34.6 µM
IC50 (MGC-803): > 64 µM
IC50 [2]: 8.96 µM
IC50 (MCF7): 19.3 µM

CC(C)c1ccc(-c2nc(SCc3cn(CC(=O)NC(=O)Nc4ccccn4)nn3)nc(Nc3ccc(F)cc3)c2C#N)cc1
IC50 [1]: 7.25 µM
IC50 (MGC-803): 17.5 µM
IC50 [2]: > 64 µM
IC50 (MCF7): > 64 µM

CC(C)c1ccc(-c2nc(SCc3cn(CC(=O)NC(=O)Nc4ccccn4)nn3)nc(Nc3ccccc3O)c2C#N)cc1
IC50 [1]: 16.1 µM
IC50 (MGC-803): 16.4 µM
IC50 [2]: 7.38 µM
IC50 (MCF7): > 64 µM

CC(C)c1ccc(-c2nc(SCc3cn(CC(=O)NC(=O)Nc4ccccn4)nn3)nc(Nc3ccccc3F)c2C#N)cc1
IC50 [1]: 8.38 µM
IC50 (MGC-803): > 64 µM
IC50 [2]: 15.5 µM
IC50 (MCF7): > 64 µM

O=c1[nH]cc(F)c(=O)[nH]1 [FLUOROURACIL]
IC50 [1]: 1.43 µM
IC50 (MGC-803): 8.43 µM
IC50 [2]: 11.6 µM
IC50 (MCF7): 9.12 µM

Cc1ccc(-c2nc(SCc3cn(CC(=O)NC(=O)Nc4ccccn4)nn3)nc(Nc3cccc(C(F)(F)F)c3)c2C#N)cc1
IC50 [1]: 9.58 µM
IC50 (MGC-803): 7.58 µM
IC50 [2]: 32.3 µM
IC50 (MCF7): 6.12 µM

COc1ccc(Nc2nc(SCc3cn(CC(=O)NC(=O)Nc4ccccn4)nn3)nc(-c3ccc(C(C)C)cc3)c2C#N)cc1
IC50 [1]: 0.36 µM
IC50 (MGC-803): > 64 µM
IC50 [2]: 5.42 µM
IC50 (MCF7): > 64 µM

CC(C)c1ccc(Nc2nc(SCc3cn(CC(=O)NC(=O)Nc4ccccn4)nn3)nc(-c3ccc(Cl)cc3)c2C#N)cc1
IC50 [1]: 1.59 µM
IC50 (MGC-803): 16.9 µM
IC50 [2]: > 64 µM
IC50 (MCF7): 39.9 µM

CC(C)c1ccc(Nc2nc(SCc3cn(CC(=O)NC(=O)Nc4ccccn4)nn3)nc(-c3ccc(C(C)C)cc3)c2C#N)cc1
IC50 [1]: 4.38 µM
IC50 (MGC-803): 15.8 µM
IC50 [2]: 2.49 µM
IC50 (MCF7): 28.6 µM

Cc1cccc(Nc2nc(SCc3cn(CC(=O)NC(=O)Nc4ccccn4)nn3)nc(-c3ccc(C(C)C)cc3)c2C#N)c1
IC50 [1]: 1.65 µM
IC50 (MGC-803): 25.3 µM
IC50 [2]: 7.32 µM
IC50 (MCF7): > 64 µM

CC(C)c1ccc(-c2nc(SCc3cn(CC(=O)NC(=O)Nc4ccccn4)nn3)nc(Nc3ccc(Cl)cc3)c2C#N)cc1
IC50 [1]: 0.86 µM
IC50 (MGC-803): > 64 µM
IC50 [2]: 11.2 µM
IC50 (MCF7): > 64 µM

Cc1ccc(Nc2nc(SCc3cn(CC(=O)NC(=O)Nc4ccccn4)nn3)nc(-c3ccc(Cl)cc3)c2C#N)cc1
IC50 [1]: 1.32 µM
IC50 (MGC-803): 24 µM
IC50 [2]: 13.1 µM
IC50 (MCF7): 27 µM

Cc1ccc(Nc2nc(SCc3cn(CC(=O)NC(=O)Nc4ccccn4)nn3)nc(-c3ccccc3)c2C#N)cc1
IC50 [1]: 3.3 µM
IC50 (MGC-803): 7.87 µM
IC50 [2]: 24.6 µM
IC50 (MCF7): > 64 µM

CC(C)c1ccc(-c2nc(SCc3cn(CC(=O)NC(=O)Nc4ccccn4)nn3)nc(Nc3cccc([N+](=O)[O-])c3)c2C#N)cc1
IC50 [1]: 26.4 µM
IC50 (MGC-803): > 64 µM
IC50 [2]: 31.3 µM
IC50 (MCF7): 25.9 µM

Cc1ccccc1Nc1nc(SCc2cn(CC(=O)NC(=O)Nc3ccccn3)nn2)nc(-c2ccc(C(C)C)cc2)c1C#N
IC50 [1]: 18.6 µM
IC50 (MGC-803): 19 µM
IC50 [2]: 7.23 µM
IC50 (MCF7): > 64 µM

COc1cc(-c2nc(SCc3cn(CC(=O)NC(=O)Nc4ccccn4)nn3)nc(Nc3cccc(Cl)c3)c2C#N)cc(OC)c1OC
IC50 [1]: 1.42 µM
IC50 (MGC-803): 15.4 µM
IC50 [2]: > 64 µM
IC50 (MCF7): 24 µM
